Results from ChEMBL document CHEMBL1123342 (J Med Chem, 1986).

Target: Pancreatic elastase (Sus scrofa, UniProt P08419+P00772)
Assay: Compound is evaluated for the inhibition of porcine pancreatic (PP) elastase
Format: protein

Compound | Ki [µM]
COC(=O)CCC(=O)N[C@@H](C)C(=O)N[C@@H](C)C(=O)N1CCC[C@H]1C(=O)CN(C(=O)Oc1ccc([N+](=O)[O-])cc1)C(C)C | 42.5
COC(=O)CCC(=O)N[C@@H](C)C(=O)N[C@@H](C)C(=O)N1CCC[C@H]1C(=O)CN(C(=O)OCC(F)(F)C(F)(F)C(F)(F)F)C(C)C | 82.1
COC(=O)CCC(=O)N[C@@H](C)C(=O)N[C@@H](C)C(=O)N1CCC[C@H]1C(=O)CN(C(=O)Oc1c(F)c(F)c(F)c(F)c1F)C(C)C | 35

Second part, the compound after the results:

Ki [µM] | Compound
31.5 | COC(=O)CCC(=O)N[C@@H](C)C(=O)N[C@@H](C)C(=O)N1CCC[C@H]1C(=O)CN(C(=O)Oc1ccccc1)C(C)C
19.5 | COC(=O)CCC(=O)N[C@@H](C)C(=O)N[C@@H](C)C(=O)N1CCC[C@H]1C(=O)CN(C(=O)Sc1nnnn1C)C(C)C
2.4 | COC(=O)CCC(=O)N[C@@H](C)C(=O)N[C@@H](C)C(=O)N1CCC[C@H]1C(=O)CN(C(=O)Sc1nnnn1-c1ccccc1)C(C)C
